# Reference: patent US8492560B2, “Quinazoline derivatives as angiogenesis inhibitors” (AstraZeneca AB, priority 1999, dated 2013)
row,melting point [°C],Structure (SMILES)
1,80 to 82,"COc1cc2c(Oc3cccc4[nH]ccc34)ncnc2cc1OCCCN1CCCCC1 [Example 169, 4-(indol-4-yloxy)-6-methoxy-7-(3-piperidinopropoxy)quinazoline]"
2,75 to 77,"COc1cc2c(Oc3ccc4[nH]cc(C)c4c3)ncnc2cc1OCCCN1CCCC1 [Example 179, 6-methoxy-4-(3-methylindol-5-yloxy)-7-(3-(pyrrolidin-1-yl)propoxy)quinazoline]"
3,184 to 185.5,"COc1cc2c(Oc3cnc4[nH]ccc4c3)ncnc2cc1OCCCN1CCCC1 [Example 182, 6-methoxy-7-(3-(pyrrolidin-1-yl)propoxy)-4-(1H-pyrrolo[2,3-b]pyridin-5-yloxy)quinazoline]"
4,250 to 251,"COc1cc2c(Oc3ccc4[nH]c(C)cc4c3)ncnc2cc1OCC1CCN(C)C(=O)C1 (stereo not shown) [Example 268, 6-methoxy-4-(2-methylindol-5-yloxy)-7-(1-methyl-2-oxopiperidin-4-ylmethoxy)quinazoline]"
